Laboratory results as given in patent publication US20240368163A1, “COMPOUNDS AND METHODS FOR MODULATING SPLICING” (REMIX THERAPEUTICS INC., priority 2021, published 2024).
Read-outs that look alike come from different tables or passages of the source.

Experiments:
Type in all cases: cell-based, human
HTT [1] = experiment: Splicing RT-qPCR assay, HTT mRNA canonical junction (CJ) and alternative junction (AJ); details: for AC50: increase in AJ mRNA
Outline: (§1)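 Splicing switch read by one-step RT-qPCR of canonical and alternative exon junctions, housekeeper-normalized (GAPDH/GUSB/PPIA), 2^(−ΔΔCt) vs DMSO as percent response. Cells (A673 or K562) dosed 24 h, 11 points 3-fold from 10 uM, DMSO ≤0.25%.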

Target C [2] = experiment: Splicing RT-qPCR panel, Target C canonical junction (CJ) mRNA; details: RT-qPCR panel, canonical junction mRNA, compound concentration having 50% response in CJ decrease, read-out: Target C IC50 (decrease in CJ mRNA levels)
Outline: as §1

HTT [3] = experiment: HiBiT protein abundance assay, HTT; details: Table 13A, modified K562 cells
Outline: (§2)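 HiBiT-tagged endogenous targets in K562 cells treated 24 h at 37° C. with 10-point 3-fold dilutions (top 10 μM, DMSO ≤0.25%). Luminescence read after lytic LgBiT detection; response normalised to unmodified-cell and DMSO controls, IC50 interpolated at 50% from four-parameter logistic fit.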

MYB [4] = experiment: Splicing RT-qPCR assay, MYB mRNA canonical junction (CJ) and alternative junction (AJ); details: for AC50: increase in AJ mRNA
Outline: as §1

MYB [5] = experiment: HiBiT protein abundance assay, MYB; details: Table 13A, modified K562 cells
Outline: as §2

SMN2 = experiment: Splicing RT-qPCR panel, SMN2 canonical junction (CJ) mRNA; details: RT-qPCR panel, canonical junction mRNA, compound concentration having 50% response in CJ decrease, read-out: SMN2 IC50 (decrease in CJ mRNA levels)
Outline: as §1

Target C [6] = experiment: HiBiT protein abundance assay, Target C; details: Table 13A, modified K562 cells
Outline: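 HiBiT knock-in K562-derived cells seeded at 10000/well and treated with 10-point 3-fold dilutions (top final 10 μM, ≤0.25% DMSO) for 24 h at 37 °C. Lytic HiBiT luminescence normalised to unmodified-cell and DMSO controls; IC50 from 4-parameter fit at 50% abundance.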

[7] = Homo sapiens, 24 h, A673 or K562 cells, 24 hours treatment, RT-qPCR
[8] = Homo sapiens, RT-qPCR panel, canonical junction mRNA, compound concentration having 50% response in CJ decrease, read-out: HTT IC50 (decrease in CJ mRNA levels)
[9] = Homo sapiens, 24 h, decrease in CJ mRNA, A673 or K562 cells, 24 hours treatment, RT-qPCR, read-out: MYB CJ IC50
[10] = Homo sapiens, RT-qPCR panel, canonical junction mRNA, compound concentration having 50% response in CJ decrease, read-out: MYB IC50 (decrease in CJ mRNA levels)
[11] = Homo sapiens, 24 h, decrease in CJ mRNA, A673 or K562 cells, 24 hours treatment, RT-qPCR, read-out: HTT CJ IC50

SMILES	AC50 (HTT [1]; [7]) [nM]	IC50 (HTT [1]; [8]) [nM]	IC50 (Target C [2]; Homo sapiens) [nM]	IC50 (HTT [3]; Homo sapiens, K562, 24 h) [nM]	IC50 (MYB [4]; [9]) [nM]	AC50 (MYB [4]; [7]) [µM]	IC50 (MYB [4]; [10]) [nM]	IC50 (MYB [5]; Homo sapiens, K562, 24 h) [nM]	IC50 (SMN2; Homo sapiens) [nM]	IC50 (Target C [6]; Homo sapiens, K562, 24 h) [nM]	IC50 (HTT [1]; [11]) [nM]	IC50 (HTT [1]; RT-qPCR panel, canonical junction mRNA, compound concentration having 50% response in CJ decrease, read-out: HTT IC50 (decrease in CJ mRNA levels)) [nM]	IC50 (HTT [1]; decrease in CJ mRNA, A673 or K562 cells, 24 hours treatment, RT-qPCR, read-out: HTT CJ IC50) [nM]	IC50 (Target C [2]) [nM]	IC50 (HTT [3]; 24 hours) [nM]	IC50 (MYB [4]; RT-qPCR panel, canonical junction mRNA, compound concentration having 50% response in CJ decrease, read-out: MYB IC50 (decrease in CJ mRNA levels)) [nM]	IC50 (MYB [4]; decrease in CJ mRNA, A673 or K562 cells, 24 hours treatment, RT-qPCR, read-out: MYB CJ IC50) [nM]	IC50 (MYB [5]; 24 hours) [nM]	IC50 (SMN2) [nM]	IC50 (Target C [6]; 24 hours) [nM]
c1nc2c(-c3cn[nH]c3)ccc(-c3ccc(N[C@@H]4C[C@H]5COC[C@@H](C4)N5)nn3)c2s1 [Compound 354, (endo)-N-{6-[4-(1H-pyrazol-4-yl)-1,3-benzothiazol-7-yl]pyridazin-3-yl}-3-oxa-9-azabicyclo[3.3.1]nonan-7-amine]	100 to 1000	< 100	100 to 1000	100 to 1000	100 to 1000	1 to 10	100 to 1000	100 to 1000	< 100	100 to 1000	–	–	–	–	–	–	–	–	–	–
CN(c1ccc(-c2ccc(-c3cn[nH]c3)c3ncsc23)nn1)[C@H]1C[C@H]2COC[C@@H](C1)N2 [Compound 355]	1000 to 10000	1000 to 10000	1000 to 10000	1000 to 10000	1000 to 10000	1 to 10	1000 to 10000	1000 to 10000	1000 to 10000	1000 to 10000	1000 to 10000	–	–	–	–	–	–	–	–	–
c1nc2c(-c3cn[nH]c3)ccc(-c3ccc(O[C@@H]4C[C@H]5COC[C@@H](C4)N5)nn3)c2s1 [Compound 357]	< 100	< 100	100 to 1000	< 100	100 to 1000	0.1 to 1	100 to 1000	100 to 1000	< 100	100 to 1000	–	–	–	–	–	–	–	–	–	–
c1nc2c(-c3cn[nH]c3)ccc(-c3ccc(O[C@H]4C[C@H]5COC[C@@H](C4)N5)nn3)c2s1 [Compound 358]	> 10000	> 10000	> 10000	> 10000	1000 to 10000	> 10	1000 to 10000	1000 to 10000	> 10000	> 10000	> 10000	–	–	–	–	–	–	–	–	–
CCc1n[nH]c2c(-c3ccc(N(C)[C@@H]4C[C@H]5CC[C@@H](C4)N5)nn3)ccc(-c3cnn(C)n3)c12 [Compound 359, (1R,3S,5S)-N-{6-[3-ethyl-4-(2-methyl-1,2,3-triazol-4-yl)-1H-indazol-7-yl]pyridazin-3-yl}-N-methyl-8-azabicyclo[3.2.1]octan-3-amine]	> 10000	> 10000	> 10000	> 10000	> 10000	> 10	> 10000	1000 to 10000	> 10000	> 10000	> 10000	–	–	–	–	–	–	–	–	–
c1nc2c(-c3cn[nH]c3)ccc(-c3ccc(N(C4CC4)C4C[C@H]5CC[C@@H](C4)N5)nn3)c2s1 (stereo partly drawn) [Compound 360, (exo)-N-cyclopropyl-N-{6-[4-(1H-pyrazol-4-yl)-1,3-benzothiazol-7-yl]pyridazin-3-yl}-8-azabicyclo [3.2.1] octan-3-amine]	< 100	< 100	100 to 1000	100 to 1000	100 to 1000	0.1 to 1	100 to 1000	100 to 1000	100 to 1000	< 100	–	–	–	–	–	–	–	–	–	–
COc1cc(-c2ccc(-c3ccc(N(C)[C@@H]4C[C@H]5CC[C@@H](C4)N5)nn3)c3[nH]ncc23)ccn1 [Compound 364, (exo)-N-{6-[4-(2-methoxypyridin-4-yl)-1H-indazol-7-yl]pyridazin-3-yl}-N-methyl-8-azabicyclo[3.2.1]octan-3-amine]	< 100	< 100	100 to 1000	< 100	100 to 1000	< 0.1	100 to 1000	< 100	< 100	< 100	–	–	–	–	–	–	–	–	–	–
CN(c1ccc(-c2ccc(-c3ccc(=O)n(C)c3)c3cn[nH]c23)nn1)[C@@H]1C[C@H]2CC[C@@H](C1)N2 [Compound 365, 5-(7-{6-[(exo)-8-azabicyclo[3.2.1]octan-3-yl(methyl)amino]pyridazin-3-yl}-1H-indazol-4-yl)-1-methylpyridin-2-one]	1000 to 10000	1000 to 10000	1000 to 10000	1000 to 10000	> 10000	> 10	> 10000	1000 to 10000	1000 to 10000	1000 to 10000	1000 to 10000	–	–	–	–	–	–	–	–	–
FC1(F)CC2CC(Oc3ccc(-c4ccc(-c5cn[nH]c5)c5cn[nH]c45)nn3)CC1N2 (stereo not drawn) [Compound 374, 7-[6-({6,6-difluoro-8-azabicyclo[3.2.1]octan-3-yl}oxy)pyridazin-3-yl]-4-(1H-pyrazol-4-yl)-1H-indazole]	–	–	–	–	–	–	–	–	–	–	–	> 10000	> 10000	> 10000	> 10000	> 10000	> 10000	> 10000	> 10000	> 10000
Cc1n[nH]c2c(-c3ccc(N(C)[C@@H]4C[C@H]5CC[C@@H](C4)N5)nn3)ccc(-c3cnn(C)n3)c12 [Compound 375, (1R,3S,5S)-N-methyl-N-{6-[3-methyl-4-(2-methyl-1,2,3-triazol-4-yl)-1H-indazol-7-yl]pyridazin-3-yl}-8-azabicyclo[3.2.1]octan-3-amine]	> 10000	> 10000	> 10000	> 10000	> 10000	> 10	> 10000	> 10000	> 10000	> 10000	> 10000	–	–	–	–	–	–	–	–	–
CC(C)(C)NC1CCN(c2ccc(-c3ccc(-n4cccn4)c4[nH]ncc34)nn2)C1 (stereo not drawn) [Compound 380, N-tert-butyl-1-{6-[7-(pyrazol-1-yl)-1H-indazol-4-yl]pyridazin-3-yl}pyrrolidin-3-amine]	1000 to 10000	1000 to 10000	1000 to 10000	1000 to 10000	1000 to 10000	1 to 10	1000 to 10000	1000 to 10000	100 to 1000	1000 to 10000	1000 to 10000	–	–	–	–	–	–	–	–	–
CCNC1CCN(c2ccc(-c3ccc(-c4cn[nH]c4)c4ncsc34)nn2)CC1 [Compound 410, N-ethyl-1-[6-[4-(1H-pyrazol-4-yl)-1,3-benzothiazol-7-yl]pyridazin-3-yl]piperidin-4-amine]	> 10000	> 10000	> 10000	1000 to 10000	1000 to 10000	> 10	1000 to 10000	1000 to 10000	1000 to 10000	1000 to 10000	> 10000	–	–	–	–	–	–	–	–	–
CNCC1CCN(c2ncc(-c3ccc(-c4cn[nH]c4)c4ncsc34)nn2)C1 (stereo not drawn) [Compound 411, N-methyl-1-[1-[6-[4-(1H-pyrazol-4-yl)-1,3-benzothiazol-7-yl]-1,2,4-triazin-3-yl]pyrroledin-3-yl]metha-namine]	> 10000	1000 to 10000	> 10000	> 10000	> 10000	> 10	> 10000	> 10000	1000 to 10000	> 10000	1000 to 10000	–	–	–	–	–	–	–	–	–
CNC1CCN(c2ncc(-c3ccc(-c4cn[nH]c4)c4ncsc34)nn2)C1 (stereo not drawn) [Compound 412, N-methyl-1-[6-[4-(1H-pyrazol-4-yl)-1,3-benzothiazol-7-yl]-1,2,4-triazin-3-yl]pyrrolidin-3-amine]	1000 to 10000	100 to 1000	> 10000	1000 to 10000	> 10000	> 10	> 10000	1000 to 10000	100 to 1000	1000 to 10000	100 to 1000	–	–	–	–	–	–	–	–	–
CN(C)C1CCN(c2ncc(-c3ccc(-c4cn[nH]c4)c4ncsc34)nn2)C1 (stereo not drawn) [Compound 413]	100 to 1000	100 to 1000	100 to 1000	100 to 1000	100 to 1000	0.1 to 1	100 to 1000	100 to 1000	100 to 1000	100 to 1000	100 to 1000	–	–	–	–	–	–	–	–	–
